Results reported in the supplement of paper PMC10307832.

Legend:
Test in all cases: relative viability (nuclei count vs DMSO), 5 days (fraction); higher = more cells survive
BEN = system: BEN
Procedure, shortened: (§1)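 Medians of duplicate plates are given as relative viability. That measure is the nuclei count in treated wells divided by the count in vehicle wells. Counts were taken on 4× images of lung cancer cell lines in 1536-well plates, 5 days after pin-tool dosing the day after seeding with one drug alone or a fixed anchor-drug dose plus five library-drug doses (not always all listed) in √10 steps.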

CAL-12T = system: CAL-12T
Procedure, shortened: as §1

EKVX = system: EKVX
Procedure, shortened: as §1

HCC-44 = system: HCC-44
Procedure, shortened: as §1

LOU-NH91 = system: LOU-NH91
Procedure, shortened: as §1

LU99A = system: LU99A
Procedure, shortened: as §1

NCI-H1355 = system: NCI-H1355
Procedure, shortened: as §1

NCI-H1395 = system: NCI-H1395
Procedure, shortened: as §1

NCI-H1437 = system: NCI-H1437
Procedure, shortened: as §1

NCI-H1563 = system: NCI-H1563
Procedure, shortened: as §1

NCI-H1650 = system: NCI-H1650
Procedure, shortened: as §1

NCI-H1651 = system: NCI-H1651
Procedure, shortened: as §1

NCI-H1734 = system: NCI-H1734
Procedure, shortened: as §1

NCI-H1755 = system: NCI-H1755
Procedure, shortened: as §1

NCI-H1975 = system: NCI-H1975
Procedure, shortened: as §1

NCI-H2023 = system: NCI-H2023
Procedure, shortened: as §1

NCI-H2085 = system: NCI-H2085
Procedure, shortened: as §1

NCI-H2342 = system: NCI-H2342
Procedure, shortened: as §1

NCI-H358 = system: NCI-H358
Procedure, shortened: as §1

NCI-H441 = system: NCI-H441
Procedure, shortened: as §1

NCI-H460 = system: NCI-H460
Procedure, shortened: as §1

NCI-H838 = system: NCI-H838
Procedure, shortened: as §1

Oc1nc(-c2ccc(C(F)(F)F)cc2)nc2c1CSCC2 [XAV939] + CCNC(=O)c1noc(-c2cc(C(C)C)c(O)cc2O)c1-c1ccc(CN2CCOCC2)cc1 [Luminespib] (partner 0.01 µM)
relative viability (BEN; first compound 0.08 µM): 0.237 | relative viability (BEN; first compound 0.253 µM): 0.211 | relative viability (BEN; first compound 0.8 µM): 0.334 | relative viability (BEN; first compound 2.53 µM): 0.262 | relative viability (CAL-12T; first compound 0.08 µM): 0.54 | relative viability (CAL-12T; first compound 0.253 µM): 0.363 | relative viability (CAL-12T; first compound 0.8 µM): 0.363 | relative viability (CAL-12T; first compound 2.53 µM): 0.3 | relative viability (EKVX; first compound 0.08 µM): 0.947 | relative viability (EKVX; first compound 0.253 µM): 0.786 | relative viability (EKVX; first compound 0.8 µM): 0.818 | relative viability (EKVX; first compound 2.53 µM): 0.7 | relative viability (HCC-44; first compound 0.08 µM): 1.61 | relative viability (HCC-44; first compound 0.253 µM): 0.981 | relative viability (HCC-44; first compound 0.8 µM): 1.12 | relative viability (HCC-44; first compound 2.53 µM): 0.974 | relative viability (LOU-NH91; first compound 0.08 µM): 0.322 | relative viability (LOU-NH91; first compound 0.253 µM): 0.337 | relative viability (LOU-NH91; first compound 0.8 µM): 0.432 | relative viability (LOU-NH91; first compound 2.53 µM): 0.295 | relative viability (LU99A; first compound 0.08 µM): 0.277 | relative viability (LU99A; first compound 0.253 µM): 0.253 | relative viability (LU99A; first compound 0.8 µM): 0.254 | relative viability (LU99A; first compound 2.53 µM): 0.195 | relative viability (NCI-H1355; first compound 0.08 µM): 0.814 | relative viability (NCI-H1355; first compound 0.253 µM): 0.787 | relative viability (NCI-H1355; first compound 0.8 µM): 0.632 | relative viability (NCI-H1355; first compound 2.53 µM): 0.47 | relative viability (NCI-H1395; first compound 0.08 µM): 0.614 | relative viability (NCI-H1395; first compound 0.253 µM): 0.725 | relative viability (NCI-H1395; first compound 0.8 µM): 0.721 | relative viability (NCI-H1395; first compound 2.53 µM): 0.662 | relative viability (NCI-H1437; first compound 0.08 µM): 1.2 | relative viability (NCI-H1437; first compound 0.253 µM): 1.09 | relative viability (NCI-H1437; first compound 0.8 µM): 1.14 | relative viability (NCI-H1437; first compound 2.53 µM): 0.911 | relative viability (NCI-H1563; first compound 0.08 µM): 0.617 | relative viability (NCI-H1563; first compound 0.253 µM): 0.481 | relative viability (NCI-H1563; first compound 0.8 µM): 0.505 | relative viability (NCI-H1563; first compound 2.53 µM): 0.489 | relative viability (NCI-H1650; first compound 0.08 µM): 0.196 | relative viability (NCI-H1650; first compound 0.253 µM): 0.225 | relative viability (NCI-H1650; first compound 0.8 µM): 0.177 | relative viability (NCI-H1650; first compound 2.53 µM): 0.197 | relative viability (NCI-H1651; first compound 0.08 µM): 0.988 | relative viability (NCI-H1651; first compound 0.253 µM): 0.699 | relative viability (NCI-H1651; first compound 0.8 µM): 0.896 | relative viability (NCI-H1651; first compound 2.53 µM): 0.725 | relative viability (NCI-H1734; first compound 0.08 µM): 0.223 | relative viability (NCI-H1734; first compound 0.253 µM): 0.216 | relative viability (NCI-H1734; first compound 0.8 µM): 0.185 | relative viability (NCI-H1734; first compound 2.53 µM): 0.162 | relative viability (NCI-H1755; first compound 0.08 µM): 0.522 | relative viability (NCI-H1755; first compound 0.253 µM): 0.457 | relative viability (NCI-H1755; first compound 0.8 µM): 0.361 | relative viability (NCI-H1755; first compound 2.53 µM): 0.488 | relative viability (NCI-H1975; first compound 0.08 µM): 0.217 | relative viability (NCI-H1975; first compound 0.253 µM): 0.246 | relative viability (NCI-H1975; first compound 0.8 µM): 0.204 | relative viability (NCI-H1975; first compound 2.53 µM): 0.139 | relative viability (NCI-H2023; first compound 0.08 µM): 0.888 | relative viability (NCI-H2023; first compound 0.253 µM): 0.604 | relative viability (NCI-H2023; first compound 0.8 µM): 0.589 | relative viability (NCI-H2023; first compound 2.53 µM): 0.454 | relative viability (NCI-H2085; first compound 0.08 µM): 0.446 | relative viability (NCI-H2085; first compound 0.253 µM): 0.422 | relative viability (NCI-H2085; first compound 0.8 µM): 0.431 | relative viability (NCI-H2085; first compound 2.53 µM): 0.406 | relative viability (NCI-H2342; first compound 0.08 µM): 0.645 | relative viability (NCI-H2342; first compound 0.253 µM): 0.601 | relative viability (NCI-H2342; first compound 0.8 µM): 0.546 | relative viability (NCI-H2342; first compound 2.53 µM): 0.402 | relative viability (NCI-H358; first compound 0.08 µM): 0.289 | relative viability (NCI-H358; first compound 0.253 µM): 0.32 | relative viability (NCI-H358; first compound 0.8 µM): 0.293 | relative viability (NCI-H358; first compound 2.53 µM): 0.412 | relative viability (NCI-H441; first compound 0.08 µM): 0.374 | relative viability (NCI-H441; first compound 0.253 µM): 0.355 | relative viability (NCI-H441; first compound 0.8 µM): 0.245 | relative viability (NCI-H441; first compound 2.53 µM): 0.282 | relative viability (NCI-H460; first compound 0.08 µM): 0.0319 | relative viability (NCI-H460; first compound 0.253 µM): 0.0395 | relative viability (NCI-H460; first compound 0.8 µM): 0.0405 | relative viability (NCI-H460; first compound 2.53 µM): 0.0235 | relative viability (NCI-H838; first compound 0.08 µM): 0.338 | relative viability (NCI-H838; first compound 0.253 µM): 0.37 | relative viability (NCI-H838; first compound 0.8 µM): 0.325 | relative viability (NCI-H838; first compound 2.53 µM): 0.304
